Experimental data as given in paper PMC8568133, “Evaluation of bisphenylthiazoles as a promising class for combating multidrug-resistant fungal infections” (PLoS ONE, 2021).
Values after ≈ are worked out from the molar mass of the structure shown. Where two headings read alike, the source gives them in different places.

Columns and labels:
[1] = tested on: E. coli JW55031 (tolC-mutant); assay: microbe, parasite or virus in culture; type: cell-based, Escherichia coli; details: Escherichia coli
Procedure: (§1) The minimum inhibitory concentrations (MICs) of the tested compounds and control drugs against clinically-relevant bacterial strains were determined using the broth microdilution method, according to guidelines outlined by the Clinical and Laboratory Standards Institute (CLSI), or as described previously.
(§2) Initial screening of the bisphenylthiazoles against Gram-positive and Gram-negative bacteria. Bacterial strains, (except C. difficile that was grown anaerobically on brain heart infusion supplemented agar at 37° C for 48 hours), were grown aerobically overnight on tryptone soy agar plates at 37° C. Afterwards, a bacterial solution equivalent to 0.5 McFarland standard was prepared and diluted in cation-adjusted Mueller-Hinton broth (CAMHB) (for S. aureus, and E. coli) to achieve a bacterial concentration of about 5 × 10^5 CFU/mL. C. difficile was diluted in brain heart infusion supplemented broth, supplemented with yeast extract, hemin and vitamin K to achieve a bacterial concentration of about 5 × 10^5 CFU/mL. Compounds and control drugs were added in the first row of the 96 -well plates, and serially diluted with the corresponding media containing bacteria. Plates were then, incubated aerobi cally at 37° C for 18-20 hours (for S. aureus and E. coli). C. difficile was incubated anaerobically at 37° C for 48 hours. […]
(§3) the visual growth of bacteria.

Cryptococcus neoformans = assay: Antifungal broth microdilution MIC (50% growth inhibition, 48 h); type: cell-based; details: Cryptococcus neoformans, read-out: MIC
Procedure: (§4) Serial dilutions (from 128 μg/mL to 0.06 μg/mL) of the tested compounds and control drugs (fluconazole, itraconazole and amphotericin) (in triplicates), were screened against clinical isolates of Candida albicans, Candida auris, Candida glabrata, Candida parapsilosis, Candida tropicalis, Candida krusei, Cryptococcus neoformans, Cryptococcus gattii and Aspergillus fumigatus species using the broth microdilution method according to the Clinical and Laboratory Standards Institute guidelines. MICs were determined as the lowest concentration of the compounds that inhibited the fungal growth by 50% after incubation at 35 °C for 24 h (for Candida and Aspergillus), or 48 h (for Cryptococcus). The minimum fungicidal concentration (MFC) of these compounds was tested by plating 4 μL from wells with no growth onto YPD agar plates. The plates were incubated at 37 °C for 24 hours before recording the MFC, which was categorized as the lowest concentration that reduced fungal growth by 99.9% [45]. The experiment was repeated three independent times.

Cryptococcus gattii = assay: as above; type: cell-based; details: Cryptococcus gattii, read-out: MIC
Procedure: as §4

[2] = tested on: C. difficile ATCC BAA1870; assay: Broth microdilution MIC, initial antibacterial screening (anaerobic); type: cell-based, Clostridioides difficile; details: Clostridioides difficile, ATCCBAA1870, read-out: MIC
Procedure: as §1, §2, §3

[3] = tested on: monkey kidney epithelial cells (Vero); assay: In vitro cytotoxicity, MTS assay; details: Vero, 24 h exposure, MTS
Procedure: (§5) Fig 2 In vitro cytotoxicity assay of bisphenylthiazole compounds 7, 16 and 17 (tested in triplicates at 32, 64 and 128 μg/mL) against: A) human colorectal cells (Caco-2), and B) monkey kidney epithelial cells (Vero) after 24-hours exposure time, using the MTS 3-(4,5-dimethylthiazol-2-yl)-5-(3-carboxymethoxyphenyl)-2-(4-sulfophenyl)-2H-tetrazolium) assay. The data represent the percentage of viable Caco-2 or Vero cells measured as the average absorbance relative to DMSO after exposure to the tested compounds. Dimethyl sulfoxide (DMSO) was used as a negative control. Error bars represent the standard deviation values.
(§6) To explore the tolerability of bisphenylthiazoles, their cytotoxicity profile was assessed in human colorectal adenocarcinoma (Caco-2) and monkey kidney epithelial cells (Vero) as described earlier. Briefly, compounds were incubated with the cells for 24 hours. Then, cells were incubated with MTS reagent for 3 hours before measuring the absorbance values (OD490). The experiment was repeated in two independent times.

[4] = tested on: human colorectal cells (Caco-2); assay: In vitro cytotoxicity, MTS assay; details: human, 24 h
Procedure: as §5, §6

[5] = tested on: E. coli BW25113 (wild-type); assay: Broth microdilution MIC, initial antibacterial screening; type: cell-based, Escherichia coli; details: Escherichia coli, read-out: MIC
Procedure: as §1, §2, §3

MRSA USA300 = assay: as above; type: cell-based, S. aureus; details: Staphylococcus aureus; MRSA USA300; read-out: MIC
Procedure: as §1, §2, §3

[6] = tested on: Lactobacillus crispatus HM-370; assay: Broth microdilution MIC against normal human microbiota; type: cell-based; details: HM370; Lactobacillus crispatus HM-370; read-out: MIC
Procedure: (§7) Broth microdilution was utilized to determine the activity of bisphenylthiazoles against the human gut microflora as described elsewhere. A bacterial solution equivalent to 0.5 McFarland standards was prepared and diluted in MRS broth to achieve a bacterial concentration of approximately 5 x 10^5 CFU/mL. Then, compounds/control antifungals (in triplicates), were added to the plates and serially diluted with media containing bacteria. The plates were incubated for 48 hours at 37 °C before recording the MIC values. The experiment was repeated three independent times.

[7] = tested on: Lactobacillus casei ATCC-334; assay: as above; type: cell-based; details: Lacticaseibacillus casei, ATCC334; Lactobacillus casei ATCC-334; read-out: MIC
Procedure: as §7

[8] = tested on: Lactobacillus gasseri HM-400; assay: as above; type: cell-based; details: HM400; Lactobacillus gasseri HM-400; read-out: MIC
Procedure: as §7

[9] = GSH trap (reactive metabolite); type: in vitro ADME; details: reactive metabolite formation
Candida albicans = assay: Antifungal broth microdilution MIC (50% growth inhibition) and MFC; type: cell-based; details: Candida albicans, read-out: MIC
Outline: (§8)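 MICs came from CLSI broth microdilution against clinical isolates, scored as 50% inhibition at 35 °C after 24 h (Candida) or 48 h (Cryptococcus). MFC is the lowest concentration cutting growth by 99.9% on YPD agar.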

Candida glabrata = assay: as above; type: cell-based; details: Nakaseomyces glabratus, read-out: MIC
Outline: (§9)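 Read-out was the lowest concentration inhibiting fungal growth by 50% (MIC) or reducing it by 99.9% after subculture onto YPD agar (MFC). Testing followed CLSI broth microdilution on clinical isolates at 35 °C, 24 h for Candida and 48 h for Cryptococcus.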

Candida tropicalis = assay: as above; type: cell-based; details: Candida tropicalis, ATCC1369; C. tropicalis ATCC 1369; read-out: MIC
Outline: as §9

Candida auris = assay: as above; type: cell-based; details: Candidozyma auris, read-out: MIC
Outline: as §8

Candida krusei = assay: as above; type: cell-based; details: Pichia kudriavzevii, read-out: MIC
Outline: as §9

Candida parapsilosis = assay: Antifungal broth microdilution MIC (50% growth inhibition); type: cell-based; details: Lodderomyces parapsilosis, read-out: MIC
Outline: as §8

Aspergillus fumigatus = assay: as above; type: cell-based; details: Aspergillus fumigatus, read-out: MIC
Outline: as §8

## Cc1nc(-c2ccc(-c3ccccc3)cc2)sc1-c1nnc(NCCN)o1 [Compound 7, N-{5-[2-((1,1’-Biphenyl)-4-yl)-4-methylthiazol-5-yl]-1,3,4-oxadiazol-2-yl}ethane-1,2-diamine]
[1]
  MIC: 64 µg/mL (≈ 170 µM)
Cryptococcus neoformans; C. neoformans NR 41298
  MIC: 2 µg/mL (≈ 5.3 µM)
Cryptococcus neoformans; C. neoformans NR 41300
  MIC: 4 µg/mL (≈ 10.6 µM)
Cryptococcus neoformans; C. neoformans NR 48770
  MIC: 2 µg/mL (≈ 5.3 µM)
Cryptococcus gattii; C. gattii NR 43209
  MIC: 2 µg/mL (≈ 5.3 µM)
Cryptococcus gattii; C. gattii NR 43210
  MIC: 2 µg/mL (≈ 5.3 µM)
[2]
  MIC: > 64 µg/mL
[3]
  concentration up to which non-toxic: ≤ 64 µg/mL
[4]
  concentration up to which non-toxic: ≤ 64 µg/mL
[5]
  MIC: > 64 µg/mL
MRSA USA300
  MIC: 32 µg/mL (≈ 84.8 µM)
[6]
  MIC: > 128 µg/mL
[7]
  MIC: > 128 µg/mL
[8]
  MIC: 64 µg/mL (≈ 170 µM)
[9]
  GSH trap: -ve
Candida albicans; ATCC10231, C. albicans ATCC 10231
  MIC: 8 µg/mL (≈ 21.2 µM)
Candida albicans; C. albicans NR-29448 (fluconazole-resistant)
  MIC: 16 µg/mL (≈ 42.4 µM)
Candida albicans; C. albicans SS5314 (wild-type)
  MIC: 4 µg/mL (≈ 10.6 µM)
Candida glabrata; ATCC66032, C. glabrata ATCC 66032
  MIC: 2 µg/mL (≈ 5.3 µM)
Candida glabrata; C. glabrata ATCC MYA-2950
  MIC: 1 µg/mL (≈ 2.65 µM)
Candida tropicalis
  MIC: 8 µg/mL (≈ 21.2 µM)
Candida auris; C. auris 381
  MIC: 8 µg/mL (≈ 21.2 µM)
Candida auris; C. auris 382
  MIC: 8 µg/mL (≈ 21.2 µM)
Candida auris; C. auris 383
  MIC: 2 µg/mL (≈ 5.3 µM)
Candida auris; C. auris 384
  MIC: 4 µg/mL (≈ 10.6 µM)
Candida auris; C. auris 385
  MIC: 4 µg/mL (≈ 10.6 µM)
Candida auris; C. auris 386
  MIC: 8 µg/mL (≈ 21.2 µM)
Candida auris; C. auris 387
  MIC: 8 µg/mL (≈ 21.2 µM)
Candida auris; C. auris 388
  MIC: 4 µg/mL (≈ 10.6 µM)
Candida auris; C. auris 389
  MIC: 8 µg/mL (≈ 21.2 µM)
Candida auris; C. auris 390
  MIC: 2 µg/mL (≈ 5.3 µM)
Candida krusei; ATCC34135, C. krusei ATCC 34135
  MIC: 2 µg/mL (≈ 5.3 µM)
Candida krusei; C. krusei CAB 396420
  MIC: 2 µg/mL (≈ 5.3 µM)
Candida parapsilosis; ATCC22019, C. parapsilosis ATCC 22019
  MIC: 2 µg/mL (≈ 5.3 µM)
Candida parapsilosis; C. parapsilosis CAB 502638
  MIC: 2 µg/mL (≈ 5.3 µM)
Aspergillus fumigatus; A. fumigatus NR 35303
  MIC: 16 µg/mL (≈ 42.4 µM)
Aspergillus fumigatus; A. fumigatus NR 35304
  MIC: 8 µg/mL (≈ 21.2 µM)
other
  melting point: 145 to 146 °C
